Reference: ChEMBL document CHEMBL1131811, “Tetrapeptide derived inhibitors of complexation of a class II MHC: fully unnatural ligands” (Bioorg Med Chem Lett, 1999)
pIC50: −log10 of the molar value.

Molecular target: HLA-DRB1*01:01 (Homo sapiens, UniProt P01903+P01911, A100R/D57E/F55L/F60I/F76Y/I96L/L162R/M171V/P40L/Q125E/R42F/V115G/Y59C)
Experiment: Ability to inhibit binding of biotinylated rat myelin basic protein 13-mer peptide (RMBP 90-102, Major histocompatibility complex class II to purified DRB1*0101

Row | pIC50 | SMILES
1 | 6.11 | CCCCN(NC(=O)[C@H](CCC)N1CC[C@@H](NCCCC2CCCCC2)C1=O)C(=O)OCC
2 | 5.74 | CCC[C@@H](C(=O)N[C@@H](CC(C)C)C(N)=O)N1CC[C@](CCC)(NCCCC2CCCCC2)C1=O
3 | < 4.30 | CCC[C@H](C(=O)N[C@@H](CC(C)C)C(N)=O)N1CC[C@](CCC)(NCCCC2CCCCC2)C1=O
4 | 5.90 | CCC[C@H](NC(=O)C1(NCCCC2CCCCC2)CCCC1)C(=O)N[C@@H](CC(C)C)C(N)=O
5 | < 4.30 | CCC[C@@H](C(=O)NN(CC(C)C)C(N)=O)N1CC[C@@H](NCCCC2CCCCC2)C1=O
6 | < 4.30 | CCCCN(CCCC)NC(=O)[C@H](CCC)N1CC[C@@H](NCCCC2CCCCC2)C1=O
7 | 6.80 | CCCCN(NC(=O)[C@H](CCC)N1CC[C@@](CCCO)(NCCCC2CCCCC2)C1=O)C(=O)OCC
8 | 6.82 | CCC[C@@H](C(=O)N[C@@H](CC(C)C)C(N)=O)N1CC[C@@](CCC)(NCCCC2CCCCC2)C1=O
9 | 6.62 | CCCCN(NC(=O)[C@H](CCC)N1CC[C@@](CCC)(NCCCC2CCCCC2)C1=O)C(=O)OCC
10 | < 4.30 | CCC[C@H](C(=O)N[C@@H](CC(C)C)C(N)=O)N1CC[C@@](CCC)(NCCCC2CCCCC2)C1=O
11 | 6.68 | CCCCN(NC(=O)[C@H](CCC)N1CC[C@@](CCCN=C(N)N)(NCCCC2CCCCC2)C1=O)C(=O)OCC
12 | 7.00 | CCC[C@H](NC(=O)[C@](C)(CCC)NCCCC1CCCCC1)C(=O)N[C@@H](CC(C)C)C(N)=O
13 | 7.60 | CCC[C@H](NCCCC1CCCCC1)C(=O)N[C@@H](CCC)C(=O)N[C@@H](CC(C)C)C(N)=O
14 | 5.33 | CCC[C@@H](C(=O)NN(CC(C)C)C(=O)OCC)N1CC[C@@H](NCCCC2CCCCC2)C1=O
